# Test results reported in US6376670B1, “Quinoline-indole antimicrobial agents, uses and compositions related thereto” (Sepracor Inc., priority 1997, dated 2002).
# Experiments:
# Format in all cases: cell-based
# [1] = test system: ciprofloxacin-resistant Staphylococcus aureus (CRSA); test: Determination of MIC values (BHI broth, 96 well microtiter plate); details: MRSA, cells marked [CRSA], overnight 37° C., read-out: MIC [CRSA] (printed in MRSA column)
# How it was run: (§1)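 MIC is read as the lowest drug concentration showing no observable growth after roughly 16 hours at 37° C in approx. 7-10% CO2. Testing used BHI broth containing compound at 0.39–25 µg/mL final, inoculated with 10^5 to 10^6 cells/mL.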
# Streptococcus pneumoniae = test: as above; details: Streptococcus pneumoniae; S. pneu; BHI broth, overnight 37° C.; read-out: MIC S. pneu
# How it was run: as §1
# [2] = test system: vancomycin-resistant Enterococcus spp. (VRE); test: as above; details: Enterococcus, VRE, VREF; BHI broth, overnight 37° C.; read-out: MIC VREF
# How it was run: as §1
# S. aureus (ATCC 33591) = test: MIC against S. aureus strain; details: Staphylococcus aureus, ATCC33591
# Method: (§2) Stock solutions of compounds are prepared with a concentration of 10 mg/mL. These solutions are then diluted 1:4 to give a concentration of 2.5 mg/mL. The compounds are then serially diluted 1:2 for 6 iterations. The concentrations made for each compound are 2.5, 1.25, 0.625, 0.3125, 0.156, 0.078, and 0.039 mg/mL. A control sample (no compound) is run along with each compound tested. All dilutions are made in DMSO.
# (§3) All wells of a 96 well microtiter plate are filled with 100 μL of BHI (Brain-Heart Infusion) broth. Columns on the plate are labeled 1-12, and rows are labeled A-H. Each column of wells is used to test one series of diluted compounds. Into each well of 100 μL of BHI broth, 1 μL of diluted compound is placed for a 1:100 dilution. This makes the final concentration of each drug series 25, 12.5, 6.25, 3.125, 1.56, 0.78, 0.39, and 0 μg/mL.
# (§4) Test Organism: A sterile 15 mL screw cap tube is filled wth 3 mL of BHI broth. Next, 2-3 colonies of test organism are inoculated into the tube. The tube is then incubated at 37° C. in a CO2 (approx. 7%) atmosphere jar. The organisms are allowed to grow to the density of a 0.5 McFarland standard (10^8 cells/mL). The organism is then inoculated into each well of the microtiter plate containing the diluted compounds to be tested for MIC. The inoculum is 1 μL in volume and represents 10^5 to 10^6 cells/mL.
# (§5) After inoculation the plates are covered and incubated at 37° C. and approx. 7-10% CO2 atmosphere overnight (about 16 hours). The plates are then observed for growth, the well with the lowest concentration of drug and no observable growth represents the well determining the MIC.
# S. aureus (ATCC 29213) = test: MIC against S. aureus strain; details: Staphylococcus aureus, ATCC29213
# Method: as §2, §3, §4, §5
# S. aureus (ATCC 33592) = test: MIC against S. aureus strain; details: Staphylococcus aureus, ATCC33592
# Method: as §2, §3, §4, §5
# S. aureus (ATCC 25923) = test: MIC against S. aureus strain; details: Staphylococcus aureus, ATCC25923
# Method: as §2, §3, §4, §5
# [3] = test system: methicillin-resistant Staphylococcus aureus (MRSA); test: Determination of MIC values (BHI broth, 96 well microtiter plate); details: Staphylococcus aureus, MRSA; read-out: MIC MRSA
# How it was run: as §1
# VISA-5827 = test: MIC against VISA strain; details: Staphylococcus aureus
# Method: as §2, §3, §4, §5
# VISA-5836 = test: MIC against VISA strain; details: Staphylococcus aureus
# Method: as §2, §3, §4, §5
# S. aureus 8325-4 [4] = test: Post-antibiotic effect (PAE), broth dilution method; details: exposed to 5×MIC for 60 min before washout; PAE = T-C
# Method: (§6) Activities of the quinoline-indoles and comparator agents were determined against MSSA (n=32), MRSA (n=31) and VISA (n=7). Susceptibility testing on MH agar was performed using an inoculum of 10^6 c.f.u. Bactericidal, lytic and PAEs were determined on S. aureus 8325-4 in MH broth. Samples were removed for viable numbers on MH agar (for bactericidal response) and culture turbidity (600 nm) (for lytic response). PAEs were determined by a broth dilution method following exposure of bacteria to drugs at 5×MIC for 60 min.
# The PAE, defined as the lag period before the target organism resumes a normal growth rate after exposure to an inhibitor, was determined for D, A, and rifampin (control) against S. aureus 8325-4. Organisms were exposed to 5×MIC for 60 min. before washout and PAE calculated as T-C, wherein T=time required for treated cells to increase 1 log CFU/mL; and C=time required for non-treated control to increase 1 log CFU/ml. after washout with fresh medium. PAEs for D and A were both 40 min and for the rifampin control PAE was 180 mins. The rifampin PAE is in agreement with literature values.
# S. aureus 8325-4 [5] = test: Lytic response (culture turbidity 600 nm) in MH broth; details: added at 5×, 10×, and 20×MIC to early log phase cultures
# Method: as §6
# The effects of the quinoline-indoles, and ciprofloxacin and rifampin (controls) on the integrity of S. aureus 8325-4 were examined following addition at 5×, 10×, and 20×MIC to early log phase cultures.
# The lysis experiments were performed using classical “time kill-curve” methodology. See V. Lorian, Antibiotics in Laboratory Medicine, 4th ed., Chapter 2; Williams & Wilkins, Baltimore, 1996 (ISBN 0-683-05169-5). Bacteria (e.g., S. aureus) are exposed in liquid culture (early log phase approx […]) to multiples (typically 2×, 5×, 10×, and 20×) of the single cell agar MIC. Drug-free controls are also included. […] The samples are diluted in fresh drug-free medium and aliquots from a range of dilutions spread onto drug-free agar plates and those giving 30-300 colony forming units/plate are counted for quantification of survivors versus time of drug exposure. […]
MIC [1],MIC (Streptococcus pneumoniae),MIC [2],Compound,further results
< 7 µg/mL,,,NCc1ccc(CNC(=O)c2cc(-c3c[nH]c4ccc(Br)cc34)nc3ccccc23)cc1 [Example 284],
< 7 µg/mL,< 7 µg/mL,< 7 µg/mL,NCCNC(=O)c1cc(-c2c[nH]c3ccc(Br)cc23)nc2cc(I)ccc12 [Example 296],
< 7 µg/mL,< 7 µg/mL,< 7 µg/mL,Cn1cc(-c2cc(C(=O)NCCN)c3ccc(I)cc3n2)c2cc(Br)ccc21 [Example 329],
< 7 µg/mL,< 7 µg/mL,< 7 µg/mL,NCCNC(=O)c1cc(-c2c[nH]c3ccc(Br)cc23)nc2ccc(Cl)cc12 [Example 286],
,,,CN(CC[N+](C)(C)C)C(=O)c1cc(-c2c[nH]c3ccc(Br)cc23)nc2cc(Cl)ccc12 [compound 10],MIC (S. aureus (ATCC 33591)): < 7 µg/mL; MIC (S. aureus (ATCC 29213)): < 7 µg/mL; MIC (S. aureus (ATCC 33592)): < 7 µg/mL; MIC (S. aureus (ATCC 25923)): < 7 µg/mL; MIC [3]: < 7 µg/mL; MIC (VISA-5827): < 7 µg/mL; MIC (VISA-5836): < 7 µg/mL
< 7 µg/mL,< 7 µg/mL,< 25 µg/mL,Cn1cc(-c2cc(C(=O)NCc3ccc(CN)cc3)c3ccc(F)cc3n2)c2cc(Br)ccc21 [Example 323],
< 7 µg/mL,< 7 µg/mL,< 7 µg/mL,NCCNC(=O)c1cc(-c2c[nH]c3ccc(Br)cc23)nc2c(I)cccc12 [Example 320],
,,,CO[C@H]1/C=C/O[C@@]2(C)Oc3c(C)c(O)c4c(O)c(c(/C=N/N5CCN(C)CC5)c(O)c4c3C2=O)NC(=O)/C(C)=C\C=C\[C@H](C)[C@H](O)[C@@H](C)[C@@H](O)[C@@H](C)[C@H](OC(C)=O)[C@@H]1C [rifampin],post-antibiotic effect (PAE) (S. aureus 8325-4 [4]): 180 min; bactericidal mechanism of action (lytic versus non-lytic) (S. aureus 8325-4 [5]): non-lytic
,,,O=C(O)c1cn(C2CC2)c2cc(N3CCNCC3)c(F)cc2c1=O [ciprofloxacin],bactericidal mechanism of action (lytic versus non-lytic) (S. aureus 8325-4 [5]): non-lytic
> 25 µg/mL,> 25 µg/mL,> 25 µg/mL,CCOC(=O)n1cc(-c2cc(C(=O)NCc3cccc(CN)c3)c3cc(I)ccc3n2)c2cc(Br)ccc21 [Example 324],
